Assay results: patent US4540709A, “Method for treatment of diseases mediated by PAF using 5-allyl-2-(3,4-Dimethoxyphenyl)-3a,α-methoxy-3-methyl-2,3,3a,6-tet rahydro-6-oxobenzofuran” (Merck & Co., Inc., priority 1983, dated 1985)

Assays:
human platelets = assay: PAF-induced platelet aggregation (human platelets); format: cell-based; conditions: in vitro
[1] = molecular target: T1, PAF specific receptor binding site on rabbit platelet plasma membranes (Oryctolagus cuniculus, UniProt G1TEI7); assay: Inhibition of 3H-PAF binding to rabbit platelet plasma membrane; conditions: in vitro, 0° C., pH 7.5
T1 construct: from tissue; host or cells: rabbit platelet plasma membranes
T1 sequence (G1TEI7 1-342): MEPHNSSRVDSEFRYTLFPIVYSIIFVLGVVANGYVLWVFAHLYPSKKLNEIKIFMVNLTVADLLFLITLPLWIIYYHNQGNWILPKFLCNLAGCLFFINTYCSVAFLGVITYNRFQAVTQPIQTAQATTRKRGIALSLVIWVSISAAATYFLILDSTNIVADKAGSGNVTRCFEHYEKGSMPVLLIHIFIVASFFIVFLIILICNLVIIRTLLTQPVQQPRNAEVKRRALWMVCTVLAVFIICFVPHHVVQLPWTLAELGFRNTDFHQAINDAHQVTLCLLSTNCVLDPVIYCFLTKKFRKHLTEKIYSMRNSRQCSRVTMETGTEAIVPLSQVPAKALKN
Description: In vitro, compound (I) inhibits PAF-induced functions in both the cellular and the tissue levels by disturbing the PAF binding to its specific receptor site. The ability of compound (I) to inhibit the PAF binding to its specific receptor binding site on rabbit platelet plasma membranes was measured by an assay recently developed by us.
The inhibition of H^3 -PAF binding to the rabbit platelet plasma membrane by compound (I) was determined by a method employing isotopic labeling and filtration techniques. Generally, a series of Tris-buffered solutions of the selected antagonist at predetermined concentrations were prepared. […] Ten […] of scintillation solution (Aquasol 2, New England Nuclear, Connecticut) was added with stirring to each filter containing the washed residue, and the radioactivity of each resulting suspension was counted in a Packard Tri-Carb 460CD Liquid Scintillation System. Defining the counts from a test sample as "Total binding with antagonist"; the counts from the control sample C1, as "Total binding C1 "; and the counts from the control sample C2 as "non-specific binding C2 ", the percent inhibition of each test antagonist can be determined by the following equation: [formula]

[2] = tested on: PAF-induced cutaneous vascular permeability; assay: Inhibition of PAF-induced increase of cutaneous vasopermeability, oral activity (Evans Blue); format: in vivo; conditions: guinea pig
Description: The specific PAF-antagonistic activities are further established by an in vivo assay (modified procedure of Humphrey et al., Lab. Investigation 46, 422 (1982)) following the protocol described below:
Protocol for the evaluation of the oral activity of PAF antagonists or the inhibition of PAF-induced increase of vasopermeability by PAF-antagonists
I. Animal species: 5 guinea pigs (400-500 g)
0.5% (w/v) aqueous methylcellulose solution sodium nembutol
2% Evans Blue solution: 2 g of Evans Blue in 100 ml of pH 7.5 Tris-buffer solution
Tris-Buffer solution: 150 mM NaCl and 10 mM Tris in […] of water with pH adjusted to 7.5.
1. Weigh the guinea pigs. Label them as control, T1, T2, T3 and T4.
2. Fast the animals overnight.
3. Weigh the animals again after the fasting.
4. Ground and suspend a PAF antagonist such as compound (I) with intensive sonication in 3 ml of 0.5% aqueous methylcellulose solution.
5. Administer orally to each of the animals T1, T2, T3 and T4 an appropriate amount (in terms of mg/kg of bodyweight) of the antagonist solution from 4.), except the control animal which should receive only the 0.5% aq. methylcellulose solution.
6. Forty minutes after the oral administration, anesthetize the animals with sodium nembutol (0.75 ml/kg i.p.).
7. After 20 minutes or when tne anesthetics became effective, inject intracardially to each animal 2 ml/kg body weight of the 2% Evans Blue solution.
8. Wait for 10 minutes. In the meantime, shave the backs of the guniea pigs and get ready for the PAF injection. Select two rows of 5 (a total of ten) sites on the back of each animal and designate them as sites […]
______________________________________
and inject intracutaneously, in duplicate 0.1 ml of a PAF solution in Tris-buffer or 0.1 ml of the Tris-buffer itself (control) according to the following schedule: […]
Sites Solution to be injected […]
15. Measure the absorbance of each supernatant from Step (14) ("skin sample") as well as the plasma extract from Step (13) ("plasma sample") at 620 nm with a Cary 210 spectrophotometer (Varian, Palo Alto, Calif.). […]

H1 = assay: Binding of H1 antagonist (3H-pyrilamine) to guinea pig brain membrane
guinea pig smooth muscle = assay: PAF-induced guinea pig smooth muscle contraction; conditions: in vitro
human PMN = assay: PAF-induced human PMN secretion; format: cell-based; conditions: in vitro
[3] = tested on: guinea pig peritoneal PMN (polymorphonuclear leukocytes); assay: PAF-induced guinea pig peritoneal PMN aggregation; format: cell-based; conditions: in vitro
guinea pig ileum = assay: Histamine-induced ileum contraction in guinea pigs
rabbit platelets = assay: PAF-induced platelet aggregation (rabbit platelets); format: cell-based; conditions: in vitro

Structure (SMILES): C=CCC1=CC2(OC)C(=CC1=O)OC(c1ccc(OC)c(OC)c1)C2C (stereo not drawn) [Compound (I), 5-allyl-2-(3,4-dimethoxyphenyl)-3a,α-methoxy-3-methyl-2,3,3a,6-tetrahydro-6-oxobenzofuran]
- inhibition of PAF-induced platelet aggregation (human platelets): inhibits
- IC50 [1]: 174 nM
- % inhibition ([2]; 25 mg/kg P.O.): 43%
- % inhibition ([2]; 50 mg/kg P.O.): 63%
- ED50 ([2]; Cavia porcellus, po, P.O.): 30 mg/kg
- inhibition of binding of H1 antagonist (3H-pyrilamine) (H1): do not inhibit
- inhibition of PAF-induced smooth muscle contraction (guinea pig smooth muscle): inhibits
- inhibition of PAF-induced PMN secretion (human PMN): inhibits
- inhibition of PAF-induced peritoneal PMN aggregation [3]: inhibits
- inhibition of histamine-induced ileum contraction (guinea pig ileum): no or only minute inhibition
- inhibition of PAF-induced platelet aggregation (rabbit platelets): inhibits
